Experimental data as given in ChEMBL document CHEMBL1137830, “Synthesis and evaluation of tacrine-E2020 hybrids as acetylcholinesterase inhibitors for the treatment of Alzheimer's disease” (Bioorg Med Chem Lett, 2004).

Columns and labels:
Butyrylcholinesterase = Butyrylcholinesterase (Rattus norvegicus, UniProt Q9JKC1)
Description: Inhibitory concentration against rat serum Butyrylcholinesterase

Acetylcholinesterase = target: T1, Acetylcholinesterase (Rattus norvegicus, UniProt P37136)
T1 sequence (P37136 whole entry): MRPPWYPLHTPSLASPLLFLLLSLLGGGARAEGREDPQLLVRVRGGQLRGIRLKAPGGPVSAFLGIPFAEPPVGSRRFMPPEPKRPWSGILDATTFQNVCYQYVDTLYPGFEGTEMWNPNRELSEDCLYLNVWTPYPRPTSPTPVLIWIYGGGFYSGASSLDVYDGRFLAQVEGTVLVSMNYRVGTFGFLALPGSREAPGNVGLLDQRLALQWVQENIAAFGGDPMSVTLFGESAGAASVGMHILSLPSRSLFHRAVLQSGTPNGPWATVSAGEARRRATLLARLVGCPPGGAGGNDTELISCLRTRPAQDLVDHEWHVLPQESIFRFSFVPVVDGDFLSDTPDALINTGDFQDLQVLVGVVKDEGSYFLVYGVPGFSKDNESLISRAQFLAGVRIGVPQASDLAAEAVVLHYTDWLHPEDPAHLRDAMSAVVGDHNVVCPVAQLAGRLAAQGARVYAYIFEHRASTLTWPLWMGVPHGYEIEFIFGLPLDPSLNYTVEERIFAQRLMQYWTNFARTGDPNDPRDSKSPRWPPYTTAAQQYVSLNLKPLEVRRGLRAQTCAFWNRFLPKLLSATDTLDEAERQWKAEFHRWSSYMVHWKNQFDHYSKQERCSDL
Description: Inhibitory concentration against rat cortex Acetylcholinesterase

Chain of Butyrylcholinesterase (Q9JKC1 whole entry): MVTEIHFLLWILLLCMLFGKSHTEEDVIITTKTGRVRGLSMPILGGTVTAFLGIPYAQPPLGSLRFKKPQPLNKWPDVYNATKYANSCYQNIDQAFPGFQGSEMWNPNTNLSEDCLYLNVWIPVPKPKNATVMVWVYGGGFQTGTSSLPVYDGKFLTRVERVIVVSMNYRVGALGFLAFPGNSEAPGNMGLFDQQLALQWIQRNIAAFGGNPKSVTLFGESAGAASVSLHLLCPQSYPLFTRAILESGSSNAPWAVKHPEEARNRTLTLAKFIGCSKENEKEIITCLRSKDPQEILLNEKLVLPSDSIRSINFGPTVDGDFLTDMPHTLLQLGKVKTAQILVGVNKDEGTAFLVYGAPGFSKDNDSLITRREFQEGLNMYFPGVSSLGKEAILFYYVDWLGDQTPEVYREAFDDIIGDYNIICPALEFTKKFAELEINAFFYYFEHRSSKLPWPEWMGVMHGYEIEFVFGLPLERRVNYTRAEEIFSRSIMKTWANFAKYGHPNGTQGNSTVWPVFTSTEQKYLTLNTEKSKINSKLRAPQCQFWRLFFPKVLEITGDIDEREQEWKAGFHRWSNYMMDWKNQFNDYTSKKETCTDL

| Structure (SMILES) | IC50 (Butyrylcholinesterase) [nM] | IC50 (Acetylcholinesterase) [nM] |
| --- | --- | --- |
| O=C(CNc1c2c(nc3ccccc13)CCCC2)NCCC1CCN(c2ccccc2)CC1 | 76 | 6 |
| O=C(CNc1c2c(nc3ccccc13)CCCC2)NCC1CCN(c2ccccc2)CC1 | 12.4 |  |
| O=C(CNC1c2ccccc2-c2[nH]c3ccccc3c21)NCCC1CCN(Cc2ccccc2)CC1 (stereo not drawn) | 17800 |  |
| COc1ccc(C(=O)NCC(=O)NCCC2CCN(Cc3ccccc3)CC2)cc1OC | 19200 | 662 |
| O=C(CNC1CCc2ccccc21)NCCC1CCN(Cc2ccccc2)CC1 (stereo not drawn) | 6920 | 230 |
